Several values for one entry are separate records, joined by “and”; a condition that tells them apart may be missing. Equal entries are not always repeated. Entries after “also recorded” stand apart in the source; their conditions may differ. A value given as a limit tells only on which side of the number the result lay.

Series [1] is described as follows: Pharmacokinetic profile in the guinea pig. The series is classed as in vivo.
Series [2] deals with MDS Pharma enzyme and receptor binding assays (benzodiazepine, bradykinin, dopamine D1/D2/D4, GABA, glutamate, glycine, serotonin, tachykinin). The experiment in a line: MDS Pharma Services counterscreen panel, remaining assays. To be noted: tested at 10 μM; active = greater than 50% inhibition.
A further series deals with Rat NOP receptor (Rattus norvegicus, UniProt P35370). Kind of series: NOP receptor binding, clone. To be noted: rat clone (CHO cells); Mean±S.E.M.
A further series concerns the target Dopamine transporter (Homo sapiens, UniProt Q01959). Kind of series: MDS Pharma Services counterscreen binding. The following applies: semi-quantitative.
The target in the next series is Dopamine D3 (Homo sapiens, UniProt P35462). Kind of series: MDS Pharma Services counterscreen binding. The following applies: semi-quantitative.
Series [3] has as its target human DOP opioid receptor (Homo sapiens, UniProt P41143). The experiment in a line: Opioid receptor binding, [3H]diprenorphine. The following applies: human DOP in CHO cell membranes, Mean±S.E.M.
Series [4] deals with human KOP opioid receptor (Homo sapiens, UniProt P41145). The experiment in a line: Opioid receptor binding, [3H]diprenorphine. To be noted: human KOP in CHO cell membranes, Mean±S.E.M.
Another series concerns the target Dog NOP receptor. The experiment in a line: NOP receptor binding, brain. The following applies: Mean±S.E.M.
A short description of series [5]: Pharmacokinetic profile in the rat. The series is classed as in vivo. The following applies: 10 mg/kg p.o.
Series [6] can be described thus: Safety pharmacology rat studies. The series is classed as in vivo. The following applies: oral doses up to 30 mg/kg, data not shown.
Series [7] in a line: General tolerability / overt behavioral effects. It counts as in vivo. The following applies: guinea pig, rat, cat and dogs.
For the next series, the target named is Sigma (non-selective). The experiment in a line: MDS Pharma Services counterscreen binding. The following applies: Sigma (non-selective, guinea pig); semi-quantitative.
The subject of another series is capsaicin-induced cough. To be noted: for doses producing significant CNS effects (lethargy, ataxia): guinea pig, in vivo, po.
The next series has as its target Sodium channel, site 2. Kind of series: MDS Pharma Services counterscreen binding. The following applies: site 2 (rat), semi-quantitative.
Series [8] is described as follows: Pharmacokinetic profile in the dog. The series is classed as in vivo.
Another series concerns the target Serotonin 5-HT6 (Homo sapiens, UniProt P50406). Kind of series: MDS Pharma Services counterscreen binding. To be noted: semi-quantitative.
Series [9] has as its system mechanically-induced cough. Kind of series: Feline mechanically-induced cough. It counts as in vivo, cat. The following applies: intra-vertebral artery, 0.001–0.3 mg/kg cumulative.
Series [10] concerns conditioned place preference. Kind of series: Rat conditioned place preference. It counts as in vivo. The following applies: for conditioned place preference (time spent in drug paired side): SCH 486757 10 mg/kg p.o., amphetamine 3 mg/kg, morphine 10 mg/kg, 4 pairings.
The target in another series is Guinea pig NOP receptor (Cavia porcellus, UniProt P47748). The experiment in a line: NOP receptor binding, brain. To be noted: guinea pig brain (cortex); Mean±S.E.M.
The next series addresses Cat NOP receptor. Kind of series: NOP receptor binding, brain. The following applies: Mean±S.E.M.

Chain of Dopamine D3 (P35462 whole entry): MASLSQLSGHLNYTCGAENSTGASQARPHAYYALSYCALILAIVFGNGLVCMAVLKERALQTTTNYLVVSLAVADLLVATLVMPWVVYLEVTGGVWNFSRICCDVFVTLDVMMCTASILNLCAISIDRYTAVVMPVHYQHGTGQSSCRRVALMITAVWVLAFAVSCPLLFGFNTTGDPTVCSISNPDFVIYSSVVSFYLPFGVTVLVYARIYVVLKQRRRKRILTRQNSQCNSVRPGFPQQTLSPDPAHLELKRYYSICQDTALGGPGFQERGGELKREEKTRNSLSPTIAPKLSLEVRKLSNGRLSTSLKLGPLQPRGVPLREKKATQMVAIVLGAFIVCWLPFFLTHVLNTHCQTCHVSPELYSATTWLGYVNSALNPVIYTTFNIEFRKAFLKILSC
Chain of Serotonin 5-HT6 (P50406 whole entry): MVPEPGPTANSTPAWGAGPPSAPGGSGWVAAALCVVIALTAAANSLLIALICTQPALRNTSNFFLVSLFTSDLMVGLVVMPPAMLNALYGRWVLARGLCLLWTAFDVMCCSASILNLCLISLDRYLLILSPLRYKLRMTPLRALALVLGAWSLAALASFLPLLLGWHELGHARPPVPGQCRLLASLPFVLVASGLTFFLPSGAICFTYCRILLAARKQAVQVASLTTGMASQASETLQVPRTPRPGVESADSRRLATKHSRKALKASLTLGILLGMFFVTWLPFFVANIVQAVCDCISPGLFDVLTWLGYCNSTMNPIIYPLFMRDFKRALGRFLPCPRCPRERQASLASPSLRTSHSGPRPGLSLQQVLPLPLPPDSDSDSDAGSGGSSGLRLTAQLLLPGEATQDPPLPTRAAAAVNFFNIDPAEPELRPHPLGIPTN
Chain of Guinea pig NOP receptor (P47748 whole entry): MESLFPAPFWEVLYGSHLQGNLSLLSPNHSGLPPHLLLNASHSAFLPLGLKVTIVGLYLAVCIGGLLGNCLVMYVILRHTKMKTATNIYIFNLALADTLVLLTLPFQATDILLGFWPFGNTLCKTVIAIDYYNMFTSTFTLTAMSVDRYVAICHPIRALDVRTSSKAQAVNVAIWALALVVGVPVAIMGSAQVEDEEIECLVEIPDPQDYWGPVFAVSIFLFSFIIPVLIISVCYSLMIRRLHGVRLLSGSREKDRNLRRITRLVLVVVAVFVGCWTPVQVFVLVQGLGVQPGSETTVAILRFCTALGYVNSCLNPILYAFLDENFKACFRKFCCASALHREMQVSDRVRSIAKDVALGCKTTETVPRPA
Chain of human DOP opioid receptor (P41143 whole entry): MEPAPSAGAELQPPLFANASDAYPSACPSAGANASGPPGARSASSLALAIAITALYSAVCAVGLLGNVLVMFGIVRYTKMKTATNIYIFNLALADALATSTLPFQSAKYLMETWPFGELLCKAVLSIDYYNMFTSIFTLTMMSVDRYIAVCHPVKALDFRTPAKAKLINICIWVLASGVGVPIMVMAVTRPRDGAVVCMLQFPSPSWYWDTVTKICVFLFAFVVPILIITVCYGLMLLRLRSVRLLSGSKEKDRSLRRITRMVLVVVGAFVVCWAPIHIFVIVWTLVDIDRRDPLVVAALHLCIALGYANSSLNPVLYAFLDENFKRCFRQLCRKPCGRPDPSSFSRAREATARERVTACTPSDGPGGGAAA
Chain of Rat NOP receptor (P35370 whole entry): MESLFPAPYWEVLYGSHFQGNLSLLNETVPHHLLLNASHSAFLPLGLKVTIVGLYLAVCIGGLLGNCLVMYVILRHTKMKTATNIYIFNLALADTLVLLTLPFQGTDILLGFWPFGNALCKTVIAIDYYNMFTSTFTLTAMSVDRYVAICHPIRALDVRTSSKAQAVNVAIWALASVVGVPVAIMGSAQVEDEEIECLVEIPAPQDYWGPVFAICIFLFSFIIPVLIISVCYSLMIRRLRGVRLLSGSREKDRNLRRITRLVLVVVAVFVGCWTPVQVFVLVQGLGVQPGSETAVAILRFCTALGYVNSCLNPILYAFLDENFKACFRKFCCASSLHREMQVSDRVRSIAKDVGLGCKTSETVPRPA
Chain of Dopamine transporter (Q01959 whole entry): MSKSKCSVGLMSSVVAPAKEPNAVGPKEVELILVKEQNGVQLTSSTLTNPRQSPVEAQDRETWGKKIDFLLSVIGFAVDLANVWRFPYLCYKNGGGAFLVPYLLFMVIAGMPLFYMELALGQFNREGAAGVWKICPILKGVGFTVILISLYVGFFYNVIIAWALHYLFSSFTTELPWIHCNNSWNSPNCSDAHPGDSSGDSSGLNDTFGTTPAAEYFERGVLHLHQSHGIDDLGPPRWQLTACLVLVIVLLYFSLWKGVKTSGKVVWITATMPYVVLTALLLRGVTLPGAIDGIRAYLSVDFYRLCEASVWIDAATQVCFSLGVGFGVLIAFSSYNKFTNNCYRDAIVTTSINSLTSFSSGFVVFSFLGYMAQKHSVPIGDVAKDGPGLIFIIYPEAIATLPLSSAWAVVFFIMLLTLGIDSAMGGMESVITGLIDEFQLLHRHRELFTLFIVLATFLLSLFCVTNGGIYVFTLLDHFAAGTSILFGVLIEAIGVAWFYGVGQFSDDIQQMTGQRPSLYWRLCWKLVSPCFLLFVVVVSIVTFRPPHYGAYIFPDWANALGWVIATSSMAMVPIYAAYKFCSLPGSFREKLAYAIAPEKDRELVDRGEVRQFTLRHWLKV
Chain of human KOP opioid receptor (P41145 whole entry): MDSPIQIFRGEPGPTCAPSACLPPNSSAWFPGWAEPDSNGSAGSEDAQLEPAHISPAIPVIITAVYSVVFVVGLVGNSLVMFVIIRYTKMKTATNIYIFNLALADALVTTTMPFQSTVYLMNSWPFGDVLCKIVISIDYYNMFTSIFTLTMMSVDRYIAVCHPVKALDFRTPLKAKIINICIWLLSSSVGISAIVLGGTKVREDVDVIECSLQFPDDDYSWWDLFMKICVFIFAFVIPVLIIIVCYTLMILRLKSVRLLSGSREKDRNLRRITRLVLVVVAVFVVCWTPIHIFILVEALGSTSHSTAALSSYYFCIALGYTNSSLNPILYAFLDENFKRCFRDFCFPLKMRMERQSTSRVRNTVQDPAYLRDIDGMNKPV

Turning to `OC1(c2ncccn2)CC2CCC(C1)N2C(c1ccccc1Cl)c1ccccc1Cl` (centres unmarked) [SCH 486757, 8-[Bis(2-Chlorophenyl)Methyl]-3-(2-Pyrimidinyl)-8-Azabicyclo-[3.2.1.]Octan-3-Ol], the AUC came out at 0.027 µM·h in series [1] (0.03 mg/kg p.o.), 0.242 µM·h in series [1] (0.30 mg/kg p.o.), 1.29 µM·h in series [5] and 1.84 µM·h in series [8] (3 mg/kg p.o.). Moreover, the Tmax in series [1] (0.03 mg/kg p.o.) came out at 3 h; in [1] (0.30 mg/kg p.o.), 3 h; in series [5] it was 3.3 h; in series [8] (3 mg/kg p.o.), 0.8 h. Also, the “plasma concentration during the 2- to 4-hour time period” value in series [1] (0.03 mg/kg p.o.) is recorded as “about 2 nM”. Moreover, the maximum concentration (Cmax) in series [1] (0.03 mg/kg p.o., 0.03 mg/kg) was 3.1 nM and 3 nM; in [1] (0.30 mg/kg p.o.) it was 31 nM; in series [5], 127 nM; in series [8] (3 mg/kg p.o.), 540 nM. Besides, the “activity in remaining MDS Pharma enzyme and receptor binding assays” value in series [2] was “did not show significant affinity”. Moreover, the Ki at Rat NOP receptor stood at 0.0066 ± 0.00015 µM; on Dopamine transporter, 8.43 µM; on Dopamine D3, 3.66 µM; in series [3] it was 14.7 ± 2.56 µM; in [4], 0.59 ± 0.04 µM; on Dog NOP receptor, 0.0053 ± 0.00071 µM. The Ki at Sigma (non-selective) is 7.12 µM; at Sodium channel, site 2, 5.58 µM; at Serotonin 5-HT6 it was 2.35 µM; on Guinea pig NOP receptor, 0.0054 ± 0.00032 µM; at Cat NOP receptor it was 0.0067 ± 0.00067 µM. For the same compound, the “effect on blood gases or respiratory function parameters” value in series [6] is listed as “did not affect”. Besides, the “tolerability, overt behavioral effects” value in series [7] is listed as “well tolerated”. Moreover, the “antitussive activity at 2 and 6 h” value in the series with capsaicin-induced cough (0.1 mg/kg, p.o., 2 and 6 h) is given as “Significant antitussive activity”. Further, the “inhibition of capsaicin-evoked coughing, chronic dosing” value in the series with capsaicin-induced cough (1 mg/kg p.o., 5-day BID regimen, 2 h post last dose) came to 40 ± 11%. In addition, the “inhibition of capsaicin-evoked coughing, acute dosing” value in the series on capsaicin-induced cough (1 mg/kg p.o., single dose, 2 h post treatment) was determined as 46 ±9%. Further, in the series with capsaicin-induced cough (1 mg/kg, p.o., 24 h, data not shown), the “inhibition of cough at 24 h” value is listed as “did not inhibited cough”. Also, the “tolerance to antitussive activity” value with capsaicin-induced cough (5-day BID dosing regimen, 1 mg/kg p.o.) was “does not produce tolerance”. The “antitussive effect in presence of naltrexone” value with capsaicin-induced cough (SCH 486757 3 mg/kg p.o., naltrexone 10 mg/kg p.o., 2 h) is “not by naltrexone”. Besides, in the series on capsaicin-induced cough (p.o., 4 h post administration), the “ED50 against capsaicin-induced cough” value is recorded as 0.04 mg/kg. The “maximum efficacy, cough suppression” value with capsaicin-induced cough (p.o., 4 h post administration) was 66 ± 6%. Moreover, the “half-life (t1/2)” value in [8] (3 mg/kg intravenous) amounted to 7.9 h. In addition, in series [8] (3 mg/kg intravenous), the “mean AUC” value worked out at 5.68 µM·h. Also, the “percent bioavailability (F%)” value in [8] (3 mg/kg p.o. vs intravenous) was 32%. The “effect on inspiratory electromyogram amplitude” value in series [9] is recorded as “did not significantly affect; also recorded: no significant effect”. In [10] (10 mg/kg p.o.), the “number of entries into the drug paired side” value was “did not alter”. Moreover, the “conditioned place preference (time spent in drug paired side)” value (“conditioned place preference” below) in series [10] was “without effect; also recorded: did not produce any conditioned place preference; also recorded: no effect”.
Regarding `CC(N)Cc1ccccc1` (centres unmarked) [amphetamine, reference compound], the “conditioned place preference” value in [10] is on record as “induced a marked conditioned place preference; also recorded: increased the time spent on the drug paired side”.
Turning to `COc1ccc2c3c1O[C@H]1[C@@H](O)C=C[C@H]4[C@@H](C2)N(C)CC[C@@]341` [codeine, reference compound], in the series on capsaicin-induced cough, the “doses producing significant CNS effects (lethargy, ataxia)” value is “higher than 60 mg/kg”. The “antitussive efficacy compared between SCH 486757 and standards” value in the series on capsaicin-induced cough (p.o., 4 h) is on record as “comparable antitussive efficacies”.
In the case of `COc1ccc2c(c1)[C@]13CCCC[C@@H]1[C@H](C2)N(C)CC3` [dextromethorphan, reference compound], the “doses producing significant CNS effects (lethargy, ataxia)” value with capsaicin-induced cough is given as > 100 mg.
Consider `CN1CC[C@]23c4c5ccc(O)c4O[C@H]2[C@@H](O)C=C[C@H]3[C@H]1C5` [morphine, reference compound], for which, in series [10], the “conditioned place preference” value is “induced a marked conditioned place preference; also recorded: increased the time spent on the drug paired side”.
Take `O=C1CC[C@@]2(O)[C@H]3Cc4ccc(O)c5c4[C@@]2(CCN3CC2CC2)[C@H]1O5` [naltrexone, reference compound]: the “action on capsaicin-induced cough responses, given alone” value in the series with capsaicin-induced cough (J113397 12 mg/kg i.p., naltrexone 10 mg/kg p.o.) is “Neither naltrexone nor J113397 given alone had any actions”.

(Values after paper PMC2922759 (European journal of pharmacology, 2009).)
